According to patent US7060277B2 (priority 1996, dated 2006):
Values joined by “and” are separate entries in the source; they are usually repeats but may differ in a detail not shown here. Equal entries are not always repeated.

System: lethal dose of SEB in D-galactosamine-treated mouse model
Parameters: species or system BALB/c mice
Details: in vivo

## lcT N K K K V T A Q E L D [pSEBLC(150–161)]
  Percent Survival: 29% and 22%
